The results in this text go back to PubChem BioAssay (NCI).

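These data come from cells grown in 96-well plates and exposed to compound for 48 hours at five concentrations. TGI: total growth inhibition.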

Test in all cases: NCI-60 cell line screen, 48 h
Test [1] relates to UO-31 renal.
In test [2] the test system is HOP-62 NSCLC.
Test [3] concerns NCI/ADR-RES ovarian.
Test [4] relates to SF-539 CNS.
The test system of test [5] is U251 CNS.
The test system of test [6] is HCT-15 colon.
In test [7] the test system is NCI-H226 lung.
Test [8] relates to MDA-MB-435.
In test [9] the test system is SF-295 CNS.
For test [10], the system named is SK-MEL-28 melanoma.
The test system of test [11] is CAKI-1 renal.
Test [12] deals with 786-0 renal.
In test [13] the test system is SNB-19 CNS.
The subject of test [14] is EKVX NSCLC.
The subject of test [15] is SK-OV-3 ovarian.
The subject of test [16] is SNB-75 CNS.
Test [17] concerns SK-MEL-2 melanoma.
In test [18] the test system is RXF 393 renal.
Test [19] concerns SF-268 CNS.
The subject of test [20] is A498 renal.

For the compound `Cc1cc2nc(C=C(C(F)(F)F)C(F)(F)F)sc2cc1C`, the TGI in test [1] stood at 7.17 µM; in test [2], 7.59 µM; in [3], 14.6 µM; in test [4], 4.31 µM; in test [5], 4.21 µM; in [6] it was 8.91 µM. The TGI in test [7] worked out at 6.79 µM; in [8], 7.07 µM; in test [9], 13.4 µM; in test [10] it was 14.5 µM; in test [11], 8.24 µM; in [12] it was 5.17 µM. The TGI came to 9.89 µM in test [13]; 7.27 µM in [14]; 32.7 µM in [15]; 10.3 µM in test [16]; 5.27 µM in [17]; 3.68 µM in [18]. In addition, the TGI was 11.3 µM in [19] and 28.5 µM in test [20].
For the compound `CC(=O)NC(Cc1ccccc1)NC(=O)O` (configuration not stated), the TGI in test [1], in [2], in test [3], in test [4], in test [5] and in test [6] was more than 100 µM throughout. Further, the TGI in test [7], in [8], in [9], in test [10], in [11] and in test [12] was more than 100 µM throughout. Also, the TGI in test [13], in test [14], in test [15], in [16], in test [17] and in test [18] was more than 100 µM each time. For the same compound, the TGI in test [19] and in test [20] was more than 100 µM each time.
As for `CCOC(=O)C(NC(C)=O)(Nc1ccc(S(N)(=O)=O)cc1)C(F)(F)F` (configuration not stated), the TGI in test [1], in test [2], in test [3], in test [4], in test [5] and in test [6] was more than 100 µM in each case. For the same compound, the TGI in test [7], in test [8], in test [9], in test [10], in [11] and in test [12] was more than 100 µM throughout. Further, the TGI in test [13], in test [14], in test [15], in test [16], in test [17] and in test [18] was more than 100 µM throughout. The TGI in test [19] and in test [20] was more than 100 µM each time.
As to `N#CC(C#N)=C/C=C/c1c(Cl)cccc1Cl`, the TGI came to 3.39 µM in test [1]; 8.87 µM in test [2]; 4.98 µM in test [3]; 2.96 µM in test [4]; 4.08 µM in [5]; 4.01 µM in test [6]. Further, the TGI in test [7] was determined as 7.05 µM; in test [8] it was 4.59 µM; in test [9], 4.38 µM; in test [10], 3.05 µM; in test [11], 4.55 µM; in test [12], 3.35 µM. Further, the TGI in test [13] was more than 10 µM; in [14], more than 10 µM; in test [15], 5.64 µM; in test [16] it was more than 10 µM; in test [17], 3.47 µM; in [18], 2.97 µM. The values for the TGI in [19] and in test [20] were 4.07 µM and 6.49 µM, respectively.
For the compound `O=S1(=O)c2ccccc2C(Nc2ccccc2)N1c1ccccc1` (configuration not stated), the TGI in [1], in [2], in test [3], in test [4], in test [5] and in [6] was more than 100 µM each time. Also, the TGI in test [7], in [8], in test [9], in test [10], in test [11] and in test [12] was more than 100 µM throughout. The TGI in [14], in test [15], in test [16], in test [17], in test [18] and in test [19] was more than 100 µM in each case. Also, the TGI in test [20] was more than 100 µM.
Regarding `CC(=O)Nc1cccc(N2C(=O)/C(=C\c3cccc(Oc4ccccc4)c3)S(=O)(=O)C2c2ccccc2)c1` (configuration not stated), the TGI in test [1], in test [2], in [3], in test [4], in test [5] and in test [6] was more than 100 µM in each case. In addition, the TGI in test [7], in test [8], in test [9], in [10], in test [11] and in [12] was more than 100 µM throughout. For the same compound, the TGI in test [13], in test [14], in test [15], in [16], in test [17] and in test [18] was more than 100 µM in each case. Also, the TGI in test [20] was more than 100 µM.
As to `C/C=C(/C)C(=O)O[C@H]1[C@H]2[C@@H]([C@@H](OC(C)=O)[C@H](C)C(=O)[C@@]34C[C@@H](C)C(=O)[C@]3(/C=C(\C)[C@H]1OC(C)=O)O4)C2(C)C`, the TGI in [1] was 16 µM; in test [2], 12 µM; in test [3], 8.03 µM; in test [4], 5.83 µM; in test [5], more than 20 µM; in test [6] it was 5.77 µM. Moreover, the TGI in [7] was 6.56 µM; in [8], 6.6 µM; in test [9], more than 20 µM; in [11] it was 10 µM; in test [12], 5.5 µM; in test [13] it was 18.4 µM. The TGI in test [14] was 17.1 µM; in test [15] it was more than 20 µM; in test [16], more than 20 µM; in test [17], 11 µM; in test [18] it was 6.75 µM; in [19], more than 20 µM. In test [20], the TGI stood at 16 µM.
